Measured values as given in patent US10570152B2, “Antibacterial therapeutics and prophylactics” (VYOME BIOSCIENCES PVT. LTD., priority 2015, dated 2020).
In brackets after ≈: the same amount, converted by molar mass.

Assays:
A. baumannii ATCC 1906 = assay: MIC by micro broth dilution; assay type: cell-based; conditions: Acinetobacter baumannii, ATCC1906, read-out: Minimum inhibitory concentration (MIC)
In short: (§1)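 Minimum inhibitory concentration follows CLSI broth microdilution in BHI medium with a 100-fold diluted 0.5 McFarland inoculum. Growth is scored by Alamar blue after a day at 37° C.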

A. baumannii CCARM 12001 = assay: MIC by micro broth dilution; assay type: cell-based; conditions: Acinetobacter baumannii, CCARM12001, read-out: Minimum inhibitory concentration (MIC)
In short: as §1

A. baumannii CCARM 12020 = assay: MIC by micro broth dilution; assay type: cell-based; conditions: Acinetobacter baumannii, CCARM12020, read-out: Minimum inhibitory concentration (MIC)
In short: as §1

E. aerogenes M2-1 = assay: MIC by micro broth dilution; assay type: cell-based; conditions: Klebsiella aerogenes, M21, read-out: Minimum inhibitory concentration (MIC)
In short: as §1

E. aerogenes NCIM 5139 = assay: MIC by micro broth dilution; assay type: cell-based; conditions: Klebsiella aerogenes, NCIM5139, read-out: Minimum inhibitory concentration (MIC)
In short: as §1

E. coli BAA 196 = assay: MIC by micro broth dilution; assay type: cell-based; conditions: Escherichia coli, BAA196, read-out: Minimum inhibitory concentration (MIC)
In short: as §1

E. coli MTCC 1687 = assay: MIC by micro broth dilution; assay type: cell-based; conditions: Escherichia coli, MTCC1687, read-out: Minimum inhibitory concentration (MIC)
In short: as §1

E. faecium CCARM 5207 = assay: MIC by micro broth dilution; assay type: cell-based; conditions: Enterococcus faecium, CCARM5207, read-out: Minimum inhibitory concentration (MIC)
In short: as §1

E. faecium NCIM 5421 = assay: MIC by micro broth dilution; assay type: cell-based; conditions: Enterococcus faecium, NCIM5421, read-out: Minimum inhibitory concentration (MIC)
In short: as §1

E. fecalis CCARM 5168 = assay: MIC by micro broth dilution; assay type: cell-based; conditions: read-out: Minimum inhibitory concentration (MIC)
In short: as §1

K. pneumonia ATCC 13883 = assay: MIC by micro broth dilution; assay type: cell-based
In short: as §1

P. aeruginosa ATCC 27853 = assay: MIC by micro broth dilution; assay type: cell-based; conditions: Pseudomonas aeruginosa, ATCC27853, read-out: Minimum inhibitory concentration (MIC)
In short: as §1

P. aeruginosa CCARM 2161 = assay: MIC by micro broth dilution; assay type: cell-based; conditions: Pseudomonas aeruginosa, CCARM2161, read-out: Minimum inhibitory concentration (MIC)
In short: as §1

P. aeruginosa CCARM 2204 = assay: MIC by micro broth dilution; assay type: cell-based; conditions: Pseudomonas aeruginosa, CCARM2204, read-out: Minimum inhibitory concentration (MIC)
In short: as §1

S. aureus ATCC 43300 = assay: MIC by micro broth dilution; assay type: cell-based; conditions: Staphylococcus aureus, ATCC43300; S. aureus ATCC 43300; read-out: Minimum inhibitory concentration (MIC)
In short: as §1

S. aureus CCARM 3505 = assay: MIC by micro broth dilution; assay type: cell-based; conditions: Staphylococcus aureus, CCARM3505, read-out: Minimum inhibitory concentration (MIC)
In short: as §1

S. aureus MTCC 6908 = assay: MIC by micro broth dilution; assay type: cell-based; conditions: Staphylococcus aureus, MTCC6908, read-out: Minimum inhibitory concentration (MIC)
In short: as §1

[1] = system: S. epidermidis ATCC 35984; assay: MIC by micro broth dilution; assay type: cell-based; conditions: Staphylococcus epidermidis, ATCC35984, read-out: Minimum inhibitory concentration (MIC)
In short: as §1

S. epidermidis S12-1 = assay: MIC by micro broth dilution; assay type: cell-based; conditions: Staphylococcus epidermidis, S121, read-out: Minimum inhibitory concentration (MIC)
In short: as §1

S. epidermidis S5-2 = assay: Sequential ZIB (zone of inhibition) assay for PMMA beads; assay type: cell-based, Staphylococcus epidermidis; conditions: SmartSet HV impregnated beads
Protocol: S. epidermidis S5-2 cells were grown in Brain Heart Infusion Agar (BHIA) at 37° C. for 24 h. 100 μl of 0.5 McFarland equal bacterial suspension was spread on BHA plates. Drug loaded beads were placed above these plates. Plates were incubated at 37° C. for 24 h. Next day, zone of inhibition (ZOI) the beads were measured following which the beads were placed on fresh BHA plates with bacterial suspension spread and this experiment was continued up to seven days. The drug release pattern was determined by compiling and analyzing the ZOI data of beads on each ZOI cycle up to seven days.

[2] = Drug release assay of compound impregnated Smart set HV; assay type: physicochemical; conditions: Smart set HV loaded; PBS buffer (pH 6.8):acetonitrile (9:1), 32° C., 7 days
Protocol: The drug release study with compound 2 and compound 10 were conducted in sample vial containing 1.5 ml of dissolution media i.e., PBS buffer (pH 6.8):acetonitrile (9:1). The sample was kept in incubator rotator at 32° C. at 40 rpm. The release medium was withdrawn at specified interval of time (2 hr, 4 hr, 6 hr, day 1, day 2, day 3, day 4, day 5, day 6, day 7 and replaced by fresh 1.5 ml dissolution medium each time. All the samples were kept at −20° C. till the analysis is done. The measurement of drug release was done by HPLC.

CC1Sc2c(C(=O)O)c(=O)c3cc(F)c(N4CCN(Cc5ccc([N+](=O)[O-])o5)CC4)cc3n21 (stereo not shown) [Compound 10, 6-Fluoro-1-methyl-7-(4-((5-nitrofuran-2-yl)methyl)piperazin-1-yl)-4-oxo-1H,4H-[1,3]thiazeto[3,2-a]-quinoline-3-carboxylic acid]
MIC (A. baumannii ATCC 1906): 1 µg/mL (≈ 2.11 µM)
MIC (A. baumannii CCARM 12001): > 16 µg/mL
MIC (A. baumannii CCARM 12020): 8 µg/mL (≈ 16.9 µM)
MIC (E. aerogenes M2-1): 0.25 µg/mL (≈ 0.527 µM)
MIC (E. aerogenes NCIM 5139): 0.125 µg/mL (≈ 0.263 µM)
MIC (E. coli BAA 196): 4 µg/mL (≈ 8.43 µM)
MIC (E. coli MTCC 1687): 0.13 µg/mL (≈ 0.274 µM)
MIC (E. faecium CCARM 5207): > 16 µg/mL
MIC (E. faecium NCIM 5421): 0.125 µg/mL (≈ 0.263 µM)
MIC (E. fecalis CCARM 5168): 1 µg/mL (≈ 2.11 µM)
activity in words (K. pneumonia ATCC 13883; Klebsiella pneumonia (susceptible)): active
MIC (K. pneumonia ATCC 13883; Klebsiella pneumoniae, ATCC13883, K. pneumonia ATCC 13883, read-out: Minimum inhibitory concentration (MIC)): 0.25 µg/mL (≈ 0.527 µM)
MIC (P. aeruginosa ATCC 27853): 1 µg/mL (≈ 2.11 µM)
MIC (P. aeruginosa CCARM 2161): > 16 µg/mL
MIC (P. aeruginosa CCARM 2204): 4 µg/mL (≈ 8.43 µM)
MIC (S. aureus ATCC 43300): < 0.02 µg/mL
MIC (S. aureus CCARM 3505): 1 µg/mL (≈ 2.11 µM)
MIC (S. aureus MTCC 6908): 0.04 µg/mL (≈ 0.0843 µM)
MIC [1]: < 0.03 µg/mL
MIC (S. epidermidis S12-1): 2.25 µg/mL (≈ 4.74 µM)
Sequential ZOI (S. epidermidis S5-2; Day-1): 2.2 cm
Sequential ZOI (S. epidermidis S5-2; Day-2): 2 cm
Sequential ZOI (S. epidermidis S5-2; Day-3): 1.8 cm
Sequential ZOI (S. epidermidis S5-2; Day-4): 1.7 cm
Sequential ZOI (S. epidermidis S5-2; Day-5): 1.7 cm
Sequential ZOI (S. epidermidis S5-2; Day-6): 1.6 cm
Sequential ZOI (S. epidermidis S5-2; Day-7): 1.8 cm
drug release from bone cement in words [2]: sustained release of active over a period of 7 days
